{"source": "paper PMC10713630", "about": "“Elucidation of the structural basis for ligand binding and translocation in conserved insect odorant receptor co-receptors” (Nature Communications, 2023)", "format_in_all_cases": "cell-based", "key": {"[1]": {"molecular_target": "DmelOrco V206W (Drosophila melanogaster, UniProt Q9VNB5, V206W)", "sequence (Q9VNB5 whole entry V206W, the tested form may be a part)": "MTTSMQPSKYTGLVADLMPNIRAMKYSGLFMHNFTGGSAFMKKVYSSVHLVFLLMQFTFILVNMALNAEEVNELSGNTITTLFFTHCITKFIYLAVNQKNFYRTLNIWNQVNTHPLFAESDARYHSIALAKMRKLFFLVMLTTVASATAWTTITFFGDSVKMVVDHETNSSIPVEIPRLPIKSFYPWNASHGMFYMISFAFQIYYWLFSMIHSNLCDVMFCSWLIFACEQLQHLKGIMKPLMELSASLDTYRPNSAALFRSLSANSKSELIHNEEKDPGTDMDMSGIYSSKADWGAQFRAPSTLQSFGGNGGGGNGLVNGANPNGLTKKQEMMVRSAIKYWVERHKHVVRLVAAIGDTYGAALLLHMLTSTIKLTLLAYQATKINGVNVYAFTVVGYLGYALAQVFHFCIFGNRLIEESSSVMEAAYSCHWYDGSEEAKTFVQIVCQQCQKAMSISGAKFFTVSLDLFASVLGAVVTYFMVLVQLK", "experiment": "TEVC recording of VUAA1-induced current, DmelOrco V206W in Xenopus oocytes", "parameters": "VUAA1-induced current, V206W: unit not given here", "settings": "for VUAA1-induced current, V206W: individual oocytes", "source_text": "(§1) All Orco gene sequences were optimized[63] for protein expression in Xenopus laevis oocytes with the GenSmartTM Codon optimization Tool and subcloned into a pGEMHE-derived vector. The wildtype gene of Drosophila melanogaster Orco (DmelOrco) was synthesized by Genscript and subcloned with XmaI/XhoI cloning sites. Site-directed mutagenesis of DmelOrco was done by PCR with the Q5® site directed mutagenesis kit (NEB) using primers optimized with the NEBase Changer online tool and following the supplier’s protocol. After transformation of commercial competent bacteria (XL10 Gold) by standard heat-shock protocol and overnight culture in ampicillin-containing LB plates, positive clones were identified by electrophoretic restriction profile and external sequencing (Genewiz). DNAs of positive clones were amplified with Qiagen MidiPrep Kit and the ORF was fully sequenced. For in vitro transcription, DNAs were linearized with restriction enzyme NotI that cuts a unique site in the 3′ region of the polyA tail. The linearized DNAs were purified by the standard phenol:chloroform extraction method and transcribed into mRNA using the T7 ultra mMessage mMachine kit (Thermo Fisher Scientific). mRNAs were purified with the NucleoSpin RNA plus XS kit (Machery-Nagel). DNA and RNA were analyzed by agarose-gel electrophoresis and quantified by spectrophotometry.\nXenopus laevis oocytes were prepared, as previously described. Briefly, oocytes were defolliculated after surgical retrieval by type 1 A collagenase over 2-3 h under smooth horizontal agitation. They were manually selected and incubated at 19 °C in modified-Barth’s solution (1 mM KCl, 0.82 mM MgSO4, 88 mM NaCl, 2.4 mM NaHCO3, 0.41 mM CaCl2, Ca(NO3)2 0.3 mM, 16 mM HEPES, pH 7.4) supplemented with 100 U mL^−1 of penicillin and streptomycin and 0.1 mg mL^−1 of gentamycin. Each oocyte was micro-injected with the Nanoject instrument (Drummond) with 50 nL of 20 ng of mRNA coding for the Orco of interest. Injected oocytes were incubated individually in 96-well plates for 4 days at 19 °C in the same buffer. Different batches of oocytes have been tested per construct. The results of the mutants of interest have been confirmed by a second set of experiments comparing the amplitudes with WT in the same day and from the same batch of oocytes (Supplementary Fig. 11).\nWhole cell currents were recorded with the two-electrode voltage-clamp (TEVC) technique with the HiClamp robot (MultiChannel System). Microelectrodes were filled with 3 M KCl. The high K^+ buffer used for recordings was composed of 91 mM KCl, 1 mM MgCl2, 1.8 mM CaCl2, 5 mM HEPES, pH 7.4. Membrane voltage was clamped to −50 mV and VUAA1 was applied for 60 s. Data were extracted with M. Vivaudou’s programs[65] and statistically analyzed with Prism 8 (Graphpad)."}, "[2]": {"molecular_target": "DmelOrco K373A (Drosophila melanogaster, UniProt Q9VNB5, K373A)", "sequence (Q9VNB5 whole entry K373A, the tested form may be a part)": "as the sequence (Q9VNB5 whole entry V206W, the tested form may be a part) above, with W206V, K373A counted along it", "experiment": "TEVC recording of VUAA1-induced current, DmelOrco K373A in Xenopus oocytes", "parameters": "VUAA1-induced current, K373A: unit not given here", "source_text": "as §1, with “The linearized DNAs were purified by the standard phenol:chloroform extraction method and transcribed into mRNA using the T7 ultra mMessage mMachine kit (Thermo Fisher Scientific). mRNAs were purified with the NucleoSpin RNA plus XS kit (Machery-Nagel).” left out, “spectrophotometry. […]” for “spectrophotometry.”\n(§2) Whole cell currents were recorded with the two-electrode voltage-clamp (TEVC) technique with the HiClamp robot (MultiChannel System). […] Data were extracted with M. Vivaudou’s programs[65] and statistically analyzed with Prism 8 (Graphpad)."}, "[3]": {"molecular_target": "DmelOrco V206S (Drosophila melanogaster, UniProt Q9VNB5, V206S)", "sequence (Q9VNB5 whole entry V206S, the tested form may be a part)": "as the sequence (Q9VNB5 whole entry V206W, the tested form may be a part) above, with W206S counted along it", "experiment": "TEVC recording of VUAA1-induced current, DmelOrco V206S in Xenopus oocytes", "parameters": "unit not given here", "settings": "Fig.4b; individual oocytes", "source_text": "as §1, with “The linearized DNAs were purified by the standard phenol:chloroform extraction method and transcribed into mRNA using the T7 ultra mMessage mMachine kit (Thermo Fisher Scientific). mRNAs were purified with the NucleoSpin RNA plus XS kit (Machery-Nagel).” left out, “spectrophotometry. […]” for “spectrophotometry.”\nas §2"}, "[4]": {"molecular_target": "DmelOrco I181A (Drosophila melanogaster, UniProt Q9VNB5, I181A)", "sequence (Q9VNB5 whole entry I181A, the tested form may be a part)": "as the sequence (Q9VNB5 whole entry V206W, the tested form may be a part) above, with I181A, W206V counted along it", "experiment": "TEVC recording of VUAA1-induced current, DmelOrco I181A in Xenopus oocytes", "parameters": "VUAA1-induced current, i181A: unit not given here", "source_text": "as §1, with “The linearized DNAs were purified by the standard phenol:chloroform extraction method and transcribed into mRNA using the T7 ultra mMessage mMachine kit (Thermo Fisher Scientific). mRNAs were purified with the NucleoSpin RNA plus XS kit (Machery-Nagel).” left out, “spectrophotometry. […]” for “spectrophotometry.”\nas §2"}, "[5]": {"molecular_target": "DmelOrco I79A (Drosophila melanogaster, UniProt Q9VNB5, I79A)", "sequence (Q9VNB5 whole entry I79A, the tested form may be a part)": "as the sequence (Q9VNB5 whole entry V206W, the tested form may be a part) above, with I79A, W206V counted along it", "experiment": "TEVC recording of VUAA1-induced current, DmelOrco I79A in Xenopus oocytes", "parameters": "VUAA1-induced current, i79A: unit not given here", "source_text": "as §1, with “The linearized DNAs were purified by the standard phenol:chloroform extraction method and transcribed into mRNA using the T7 ultra mMessage mMachine kit (Thermo Fisher Scientific). mRNAs were purified with the NucleoSpin RNA plus XS kit (Machery-Nagel).” left out, “spectrophotometry. […]” for “spectrophotometry.”\nas §2"}}, "note": "Where “and” joins values, the source holds several entries; their conditions need not be identical. Identical values can stand only once. Entries after “also recorded” stand apart in the source; their conditions may differ."}
{"smiles": "CCc1ccc(NC(=O)CSc2nnc(-c3cccnc3)n2CC)cc1", "note": "[VUAA1, N-(4-ethylphenyl)−2-((4-ethyl-5-(3-pyridinyl)−4H-1,2,4-triazol-3-yl)thio)acetamide]", "values": [{"measurement": "Response to VUAA1 compared with WT", "setting": "[1]; 500 µM VUAA1, TEVC, V206W", "result": "significantly reduced or abolished the activation; also recorded: significant decrease in the response"}, {"measurement": "VUAA1-induced current, V206W", "setting": "[1]; Fig.4b", "result": "0.24 and 0.29 and 1.03 and 0.65 and 0.59 and 0.7 and 0.64 and 0.44 and 0.27"}, {"measurement": "VUAA1-induced current, V206W", "setting": "[1]; Fig.4i dose-response, VUAA1 10 µM (Log(M) -5)", "result": "0.05 and 0.36 and 0.03 and 0.04 (2×) and 0.02 (2×) and 0.01"}, {"measurement": "VUAA1-induced current, V206W", "setting": "[1]; Fig.4i dose-response, VUAA1 25 µM (Log(M) -4.6)", "result": "0.02 (2×) and 0.37 and 0.05 and 0.04 and 0.03 (3×)"}, {"measurement": "VUAA1-induced current, V206W", "setting": "[1]; Fig.4i dose-response, VUAA1 50 µM (Log(M) -4.3)", "result": "0.01 and 0.48 and 0.1 and 0.04 (2×) and 0.05 (2×) and 0.03"}, {"measurement": "VUAA1-induced current, V206W", "setting": "[1]; Fig.4i dose-response, VUAA1 100 µM (Log(M) -4)", "result": "0.01 and 0.59 and 0.18 and 0.05 and 0.19 and 0 and 0.22 and 0.1"}, {"measurement": "VUAA1-induced current, V206W", "setting": "[1]; Fig.4i dose-response, VUAA1 500 µM (Log(M) -3.3)", "result": "0.07 (2×) and 0.56 and 0.2 and 0.4 and 0.09 and 0.5 and 0.18"}, {"measurement": "VUAA1-induced current, V206W", "setting": "[1]; Fig.4i dose-response, VUAA1 1000 µM (Log(M) -3)", "result": "0.12 and 0.59 and 0.2 and 0.07 and 0.5 and 0.11 and 0.61 and 0.24"}, {"measurement": "Imax", "setting": "[1]; concentration-effect curve of VUAA1, TEVC, V206W", "result": 0.33, "unit": "µA"}, {"measurement": "Response to VUAA1 compared with WT", "setting": "[2]; 500 µM VUAA1, TEVC, K373A", "result": "did not significantly affect the amplitude of activation; also recorded: did not change the response"}, {"measurement": "VUAA1-induced current, K373A", "setting": "[2]; Fig.4b, individual oocytes", "result": "6.85 and 4.61 and 2.07 and 4.45 and 3.44 and 3.51 and 4.3 and 6.42 and 4.68 and 7.17 and 5.08"}, {"measurement": "VUAA1-induced current, V206S", "setting": "[3]", "result": "3.68 and 9.72 and 7.51 and 6.18 and 8.36 and 5.44 and 4.17 and 5.76"}, {"measurement": "Response to VUAA1 compared with WT", "setting": "[4]; 500 µM VUAA1, TEVC, I181A", "result": "did not significantly affect the amplitude of activation"}, {"measurement": "VUAA1-induced current, i181A", "setting": "[4]; Fig.4b, individual oocytes", "result": "2.04 and 7.33 and 5.46 and 2.9 and 2.3 and 1.5 and 5.38 and 11.56 and 4.17 and 3.69"}, {"measurement": "Response to VUAA1 compared with WT", "setting": "[5]; 500 µM VUAA1, TEVC, I79A", "result": "did not significantly affect the amplitude of activation"}, {"measurement": "VUAA1-induced current, i79A", "setting": "[5]; Fig.4b, individual oocytes", "result": "1.26 and 4.71 and 3.65 and 1.07 and 3.06 and 3.49 and 3.19 and 0.68 and 2.72 and 3.85"}]}
